Measurements as given in the supplement of paper PMC11208160.

Assay: recombinant UMI read abundance after kanamycin selection (control-corrected) (log10(CPM+1)); higher = more efficient recombination; extreme values may be limits of the assay; sequences stand for … in AGTGCAGAGAAAATCGGCCAGTTTTCTCTGCCTGCAGTCCGCATGCCGTGGGACCCCTTGGGTTCTAACCTGTTGCCTAGATTTATGCAGCGGACTGCCTTTCTCCCAAAGTGATAAACCGG…AGGTTGGTTTCACT; site = the 11-nt donor
Protocol: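 Pooled E. coli donor-specificity screen for the IS621 bridge recombinase. Each library member carries a reprogrammed 11-nt donor and a full-length LE bridge RNA expressed in cis from the natural promoter, with a paired donor-binding loop (8-nt LDG + 4-nt RDG) and a target-binding loop fixed to T5. It is co-electroporated with a T5 target plasmid; recombinase is induced with 0.07 mM IPTG and recombinants are selected on kanamycin. UMIs are counted as CPM, averaged over two biological replicates and corrected by the unselected control. Molecule = full bridge RNA written as DNA, built from the T5 scaffold: LDG = donor specificity nt 1-8, RDG = reverse complement of nt 8-11.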
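Note: IS621 bridge recombinase in Escherichia coli cells against a fixed T5 target plasmid.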

| Sequence | recombinant UMI read abundance (log10) |
| --- | --- |
| AGCCATTCATGGACCGGTTTTCCCGGTAATCCGTATTTGAC (site AGCCATTCTGT) | 2.1 |
| AGCCATTCATGGACCGGTTTTCCCGGTAATCCGTATTTGAC (site AGCCCTTCTGT) | 0 |
| AGCCATTCATGGACCGGTTTTCCCGGTAATCCGTATTTGAC (site AGCCGTTCTGT) | 0 |
| AGCCATTCATGGACCGGTTTTCCCGGTAATCCGTATTTGAC (site AGCCTTTCTGT) | 0 |
| AGCCCATCATGGACCGGTTTTCCCGGTAATCCGTATTTGCT (site AGCCCATCTAG) | 1.83 |
| AGCCCTGCATGGACCGGTTTTCCCGGTAATCCGTATTTGGG (site AGCCCTGCTCC) | 0.336 |
| AGCCCTTCATGGACCGGTTTTCCCGGTAATCCGTATTTGAC (site AGCCATTCTGT) | 0 |
| AGCCCTTCATGGACCGGTTTTCCCGGTAATCCGTATTTGAC (site AGCCCTTCTGT) | 2.11 |
| AGCCCTTCATGGACCGGTTTTCCCGGTAATCCGTATTTGAC (site AGCCGTTCTGT) | 0 |
| AGCCCTTCATGGACCGGTTTTCCCGGTAATCCGTATTTGAC (site AGCCTTTCTGT) | 0.00743 |
| AGCCTAGCATGGACCGGTTTTCCCGGTAATCCGTATTTGGT (site AGCCTAGCTAA) | 0.168 |
| AGCCTAGCATGGACCGGTTTTCCCGGTAATCCGTATTTGGT (site AGCCTAGCTAC) | 0 |
| AGCCTAGCATGGACCGGTTTTCCCGGTAATCCGTATTTGGT (site AGCCTAGCTAG) | 0.00404 |
| AGCCTAGCATGGACCGGTTTTCCCGGTAATCCGTATTTGGT (site AGCCTAGCTAT) | 0.00284 |
| AGCCTGGCATGGACCGGTTTTCCCGGTAATCCGTATTTGTT (site AGCCTAGCTAA) | 0 |
| AGCCTGGCATGGACCGGTTTTCCCGGTAATCCGTATTTGTT (site AGCCTCGCTAA) | 0.0194 |
| AGCCTGGCATGGACCGGTTTTCCCGGTAATCCGTATTTGTT (site AGCCTGGCTAA) | 0.0154 |
| AGCCTGGCATGGACCGGTTTTCCCGGTAATCCGTATTTGTT (site AGCCTTGCTAA) | 0.0159 |
| AGCCTGTCATGGACCGGTTTTCCCGGTAATCCGTATTTGAC (site AGCCTATCTGT) | 0 |
| AGCCTGTCATGGACCGGTTTTCCCGGTAATCCGTATTTGAC (site AGCCTCTCTGT) | 0 |
| AGCCTGTCATGGACCGGTTTTCCCGGTAATCCGTATTTGAC (site AGCCTGTCTGT) | 0 |
| AGCCTGTCATGGACCGGTTTTCCCGGTAATCCGTATTTGAC (site AGCCTTTCTGT) | 0 |
| AGCCTTCCATGGACCGGTTTTCCCGGTAATCCGTATTTGAC (site AGCCTTACTGT) | 0 |
| AGCCTTCCATGGACCGGTTTTCCCGGTAATCCGTATTTGAC (site AGCCTTCCTGT) | 0 |

| Sequence | recombinant UMI read abundance (log10) |
| --- | --- |
| AGCCTTCCATGGACCGGTTTTCCCGGTAATCCGTATTTGAC (site AGCCTTGCTGT) | 0 |
| AGCCTTCCATGGACCGGTTTTCCCGGTAATCCGTATTTGAC (site AGCCTTTCTGT) | 0 |
| AGCCTTGCATGGACCGGTTTTCCCGGTAATCCGTATTTGTT (site AGCCTAGCTAA) | 0.00391 |
| AGCCTTGCATGGACCGGTTTTCCCGGTAATCCGTATTTGTT (site AGCCTCGCTAA) | 0.0115 |
| AGCCTTGCATGGACCGGTTTTCCCGGTAATCCGTATTTGTT (site AGCCTGGCTAA) | 0.0183 |
| AGCCTTGCATGGACCGGTTTTCCCGGTAATCCGTATTTGTT (site AGCCTTGCTAA) | 0 |
| AGCCTTTCATGGACCGGTTTTCCCGGTAATCCGTATTTGAG (site AGCCTTTCTAT) | 0 |
| AGCCTTTCATGGACCGGTTTTCCCGGTAATCCGTATTTGAG (site AGCCTTTCTCT) | 0 |
| AGCCTTTCATGGACCGGTTTTCCCGGTAATCCGTATTTGAG (site AGCCTTTCTGT) | 0 |
| AGCCTTTCATGGACCGGTTTTCCCGGTAATCCGTATTTGAG (site AGCCTTTCTTT) | 0.007 |
| AGCGATACATGGACCGGTTTTCCCGGTAATCCGTATTTGAA (site AGCGATACTTT) | 1.65 |
| AGCGTAACATGGACCGGTTTTCCCGGTAATCCGTATTTGAC (site AGCGTAACTGT) | 2.86 |
| AGCGTAGCATGGACCGGTTTTCCCGGTAATCCGTATTTGCA (site AGCGTAGCTTG) | 2.87 |
| AGCGTAGCATGGACCGGTTTTCCCGGTAATCCGTATTTGTT (site AGCATAGCTAA) | 0.838 |
| AGCGTAGCATGGACCGGTTTTCCCGGTAATCCGTATTTGTT (site AGCCTAGCTAA) | 0.0274 |
| AGCGTAGCATGGACCGGTTTTCCCGGTAATCCGTATTTGTT (site AGCGTAGCTAA) | 1.33 |
| AGCGTAGCATGGACCGGTTTTCCCGGTAATCCGTATTTGTT (site AGCTTAGCTAA) | 0.00472 |
| AGCGTGACATGGACCGGTTTTCCCGGTAATCCGTATTTGCC (site AGCGTGACTGG) | 1.78 |
| AGCGTTACATGGACCGGTTTTCCCGGTAATCCGTATTTGTA (site AGCGTTACTTA) | 0.651 |
| AGCTCAACATGGACCGGTTTTCCCGGTAATCCGTATTTGGG (site AGCTCAACTCC) | 0 |
| AGCTCAACATGGACCGGTTTTCCCGGTAATCCGTATTTGGG (site AGCTCACCTCC) | 0 |
| AGCTCAACATGGACCGGTTTTCCCGGTAATCCGTATTTGGG (site AGCTCAGCTCC) | 0 |
| AGCTCAACATGGACCGGTTTTCCCGGTAATCCGTATTTGGG (site AGCTCATCTCC) | 0 |
| AGCTCAGCATGGACCGGTTTTCCCGGTAATCCGTATTTGGC (site AGCTCAGCTAC) | 0.396 |

| Sequence | recombinant UMI read abundance (log10) |
| --- | --- |
| AGCTCAGCATGGACCGGTTTTCCCGGTAATCCGTATTTGGC (site AGCTCAGCTCC) | 0.00906 |
| AGCTCAGCATGGACCGGTTTTCCCGGTAATCCGTATTTGGC (site AGCTCAGCTGC) | 2.19 |
| AGCTCAGCATGGACCGGTTTTCCCGGTAATCCGTATTTGGC (site AGCTCAGCTTC) | 0.398 |
| AGCTCAGCATGGACCGGTTTTCCCGGTAATCCGTATTTGGG (site AACTCAGCTCC) | 0 |
| AGCTCAGCATGGACCGGTTTTCCCGGTAATCCGTATTTGGG (site ACCTCAGCTCC) | 0.026 |
| AGCTCAGCATGGACCGGTTTTCCCGGTAATCCGTATTTGGG (site AGATCAGCTCC) | 0.0131 |
| AGCTCAGCATGGACCGGTTTTCCCGGTAATCCGTATTTGGG (site AGCACAGCTCC) | 0.212 |
| AGCTCAGCATGGACCGGTTTTCCCGGTAATCCGTATTTGGG (site AGCCCAGCTCC) | 0.263 |
| AGCTCAGCATGGACCGGTTTTCCCGGTAATCCGTATTTGGG (site AGCGCAGCTCC) | 0.0219 |
| AGCTCAGCATGGACCGGTTTTCCCGGTAATCCGTATTTGGG (site AGCTAAGCTCC) | 0.0351 |
| AGCTCAGCATGGACCGGTTTTCCCGGTAATCCGTATTTGGG (site AGCTCAACTCC) | 0 |
| AGCTCAGCATGGACCGGTTTTCCCGGTAATCCGTATTTGGG (site AGCTCACCTCC) | 0.00337 |
| AGCTCAGCATGGACCGGTTTTCCCGGTAATCCGTATTTGGG (site AGCTCAGCTAC) | 0.00707 |
| AGCTCAGCATGGACCGGTTTTCCCGGTAATCCGTATTTGGG (site AGCTCAGCTCA) | 0.0167 |
| AGCTCAGCATGGACCGGTTTTCCCGGTAATCCGTATTTGGG (site AGCTCAGCTCC) | 0.0108 |
| AGCTCAGCATGGACCGGTTTTCCCGGTAATCCGTATTTGGG (site AGCTCAGCTCG) | 0.0246 |
| AGCTCAGCATGGACCGGTTTTCCCGGTAATCCGTATTTGGG (site AGCTCAGCTCT) | 0.337 |
| AGCTCAGCATGGACCGGTTTTCCCGGTAATCCGTATTTGGG (site AGCTCAGCTGC) | 0 |
| AGCTCAGCATGGACCGGTTTTCCCGGTAATCCGTATTTGGG (site AGCTCAGCTTC) | 0.0127 |
| AGCTCAGCATGGACCGGTTTTCCCGGTAATCCGTATTTGGG (site AGCTCATCTCC) | 0.0384 |
| AGCTCAGCATGGACCGGTTTTCCCGGTAATCCGTATTTGGG (site AGCTCCGCTCC) | 0.0147 |
| AGCTCAGCATGGACCGGTTTTCCCGGTAATCCGTATTTGGG (site AGCTCGGCTCC) | 0.0329 |
| AGCTCAGCATGGACCGGTTTTCCCGGTAATCCGTATTTGGG (site AGCTCTGCTCC) | 0.0255 |
| AGCTCAGCATGGACCGGTTTTCCCGGTAATCCGTATTTGGG (site AGCTGAGCTCC) | 0 |
